Common to all, as to format: biochemical
For one test, the target named is AKT-3 (Homo sapiens, UniProt Q9Y243). Description: AKT-3 inhibition assay (standard coupled enzyme assay). As to conditions: 170 μM ATP, 200 μM peptide, 45 nM AKT, 30° C.
In a further test the target is T1, PDK-1 (Homo sapiens, UniProt O15530).
T1 sequence (O15530 1-556): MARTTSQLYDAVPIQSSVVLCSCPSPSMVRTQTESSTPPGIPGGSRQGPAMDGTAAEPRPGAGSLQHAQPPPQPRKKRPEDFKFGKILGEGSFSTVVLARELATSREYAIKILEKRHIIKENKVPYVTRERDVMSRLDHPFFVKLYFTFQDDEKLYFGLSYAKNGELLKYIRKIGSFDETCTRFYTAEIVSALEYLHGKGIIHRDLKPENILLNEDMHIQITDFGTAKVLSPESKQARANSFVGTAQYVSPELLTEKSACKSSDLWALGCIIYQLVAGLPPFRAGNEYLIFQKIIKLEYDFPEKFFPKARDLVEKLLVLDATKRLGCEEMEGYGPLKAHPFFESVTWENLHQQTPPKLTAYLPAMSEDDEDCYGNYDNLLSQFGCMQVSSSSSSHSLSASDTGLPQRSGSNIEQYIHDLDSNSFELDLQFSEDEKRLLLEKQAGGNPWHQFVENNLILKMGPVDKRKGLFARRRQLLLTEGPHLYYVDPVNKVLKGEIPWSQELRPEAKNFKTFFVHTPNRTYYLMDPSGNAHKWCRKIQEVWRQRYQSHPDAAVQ
The experiment in a line: PDK-1 inhibition assay (radioactive-phosphate incorporation). As to conditions: 40 μM ATP, 65 μM PDKtide, 25 nM PDK-1, 30° C.

In another test the target is PKA (Homo sapiens, UniProt P17612). Description: PKA inhibition assay (standard coupled enzyme assay). The following applies: 50 μM ATP, 80 μM Kemptide, 18 nM PKA, 30° C. How it is done:
Compounds were screened for their ability to inhibit PKA using a standard coupled enzyme assay (Fox et al., Protein Sci., (1998) 7, 2249). Assays were carried out in a mixture of 100 mM HEPES 7.5, 10 mM MgCl2, 25 mM NaCl, 1 mM DTT and 3% DMSO. Final substrate concentrations in the assay were 50 μM ATP (Sigma Chemicals) and 80 μM peptide (Kemptide, American Peptide, Sunnyvale, Calif.). Assays were carried out at 30° C. and 18 nM PKA. Final concentrations of the components of the coupled enzyme system were 2.5 mM phosphoenolpyruvate, 300 μM NADH, 30 μg/ml pyruvate kinase and 10 μg/ml lactate dehydrogenase.
An assay stock buffer solution was prepared containing all of the reagents listed above, with the exception of ATP, and the test compound of interest. 55 μl of the stock solution was placed in a 96 well plate followed by addition of 2 μl of DMSO stock containing serial dilutions of the test compound (typically starting from a final concentration of 5 μM). The plate was preincubated for 10 minutes at 30° C. and the reaction initiated by addition of 5 μl of ATP (final concentration 50 μM). Initial reaction rates were determined with a Molecular Devices SpectraMax Plus plate reader over a 15 minute time course. IC50 and Ki data were calculated from non-linear regression analysis using the Prism software package (GraphPad Prism version 3.0a for Macintosh, GraphPad Software, San Diego Calif., USA).

In patent US7041687B2, “Indazole compounds useful as protein kinase inhibitors” (Vertex Pharmaceuticals Incorporated, priority 2002, dated 2006) one finds Ki data, which are given here for 37 molecules.

Where “and” joins values, the source holds several entries; their conditions need not be identical. Equal entries are not always repeated. Where only a bound is given, the exact number is not on record here.

Sequence of AKT-3 (Q9Y243 whole entry): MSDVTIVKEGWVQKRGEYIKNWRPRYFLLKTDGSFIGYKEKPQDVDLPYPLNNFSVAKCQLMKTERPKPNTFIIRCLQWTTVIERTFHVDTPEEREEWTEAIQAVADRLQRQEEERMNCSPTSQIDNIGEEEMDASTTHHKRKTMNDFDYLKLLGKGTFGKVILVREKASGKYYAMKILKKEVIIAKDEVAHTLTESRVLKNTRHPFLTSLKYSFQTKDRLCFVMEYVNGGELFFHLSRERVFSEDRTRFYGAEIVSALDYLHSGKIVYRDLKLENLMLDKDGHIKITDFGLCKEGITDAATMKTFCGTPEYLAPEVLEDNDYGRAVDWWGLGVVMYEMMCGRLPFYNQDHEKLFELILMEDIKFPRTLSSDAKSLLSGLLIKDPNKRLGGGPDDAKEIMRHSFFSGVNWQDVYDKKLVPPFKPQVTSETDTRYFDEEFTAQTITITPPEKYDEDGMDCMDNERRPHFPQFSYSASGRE
Method for PDK-1: Compounds were screened for their ability to inhibit PDK-1 using a radioactive-phosphate incorporation assay (Pitt and Lee, J. Biomol. Screen., (1996) 1, 47). Assays were carried out in a mixture of 100 mM HEPES (pH 7.5), 10 mM MgCl2, 25 mM NaCl, 2 mM DTT. Final substrate concentrations in the assay were 40 μM ATP (Sigma Chemicals) and 65 μM peptide (PDKtide, Upstate, Lake Placid, N.Y.). Assays were carried out at 30° C. and 25 nM PDK-1 in the presence of ˜27.5 nCi/μL of [γ-^32P]ATP (Amersham Pharmacia Biotech, Amersham, UK). An assay stock buffer solution was prepared containing all of the reagents listed above, with the exception of ATP, and the test compound of interest. 15 μl of the stock solution was placed in a 96 well plate followed by addition of 1 μl of 0.5 mM DMSO stock containing the test compound (final compound concentration 25 μM, final DMSO concentration 5%). The plate was preincubated for about 10 minutes at 30° C. and the reaction initiated by addition of 4 μl ATP (final concentration 40 μM).
The reaction was stopped after 10 minutes by the addition of 100 μL 100 mM phosphoric acid, 0.01% Tween-20. A phosphocellulose 96 well plate (Millipore, Cat no. MAPHNOB50) was pretreated with 100 μL 100 mM phosphoric acid, 0.01% Tween-20 prior to the addition of the reaction mixture (100 μL). The spots were left to soak for at least 5 minutes, prior to wash steps (4×200 μL 100 mM phosphoric acid, 0.01% Tween-20). Alter drying, 20 μL Optiphase ‘SuperMix’ liquid scintillation cocktail (Perkin Elmer) was added to the well prior to scintillation counting (1450 Microbeta Liquid Scintillation Counter, Wallac).

For the molecule `NCCC(C(=O)Nc1ccc2[nH]nc(NC(=O)c3cccc(Cl)c3)c2c1)c1ccc(Cl)c(Cl)c1` (centres unmarked) [Compound I-160], the Ki at AKT-3 was < 1000 nM; at PDK-1 it was 1000 to 3000 nM; on PKA, < 1000 nM.
For the molecule `NCCC(C(=O)Nc1ccc2[nH]nc(NC(=O)c3cc(F)cc(C(F)(F)F)c3)c2c1)c1ccc(Cl)c(Cl)c1` (centres unmarked) [Compound I-203], the Ki at AKT-3 was < 1000 nM; on PDK-1, > 3000 nM; on PKA, < 1000 nM.
In the case of `CCc1ccc(C(=O)Nc2n[nH]c3ccc(NC(=O)C(CCN)c4ccc(Cl)c(Cl)c4)cc23)cc1` (centres unmarked) [Compound I-187], the Ki at AKT-3 was < 1000 nM; on PDK-1, 1000 to 3000 nM; at PKA, < 1000 nM.
For the molecule `NCCC(C(=O)Nc1ccc2[nH]nc(NC(=O)c3ccccc3Cl)c2c1)c1ccc(Cl)c(Cl)c1` (centres unmarked) [Compound I-180], the Ki on AKT-3 is < 1000 nM; on PDK-1 it was 1000 to 3000 nM; on PKA, < 1000 nM.
For `COc1cccc(C(=O)Nc2n[nH]c3ccc(NC(=O)C(CCN)c4ccc(Cl)c(Cl)c4)cc23)c1` (centres unmarked) [Compound I-167], the Ki on AKT-3, on PDK-1 and at PKA was < 1000 nM each time.
With `NCCC(C(=O)Nc1ccc2[nH]nc(NC(=O)c3cccc(OC(F)(F)F)c3)c2c1)c1ccc(Cl)c(Cl)c1` (centres unmarked) [Compound I-204], the inhibition constant (Ki) was < 1000 nM on AKT-3, > 3000 nM at PDK-1 and < 1000 nM on PKA.
Consider `NCC[C@H](C(=O)Nc1ccc2[nH]nc(NC(=O)c3cccs3)c2c1)c1ccccc1` [Compound I-1044], for which the Ki at AKT-3, at PDK-1 and on PKA was < 1000 nM throughout.
Turning to `NCCC(C(=O)Nc1ccc2[nH]ncc2c1)c1cccc(Cl)c1F` (centres unmarked) [Compound I-101], the Ki at AKT-3 was < 1000 nM; at PDK-1, 1000 to 3000 nM; on PKA, < 1000 nM.
As to `NCCC(C(=O)Nc1ccc2[nH]nc(CCc3ccccc3)c2c1)c1ccc(Cl)c(Cl)c1` (centres unmarked) [Compound I-123], the figures for the Ki at AKT-3, on PDK-1 and on PKA were 1000 to 10000 nM, < 1000 nM and < 1000 nM, respectively.
On to `NCCC(C(=O)Nc1ccc2[nH]nc(NC(=O)c3cccc(Oc4ccccc4)c3)c2c1)c1ccc(Cl)c(Cl)c1` (centres unmarked) [Compound I-178], for which the Ki at AKT-3 is < 1000 nM; on PDK-1 it was > 3000 nM; on PKA, < 1000 nM.
In the case of `Cc1n[nH]c2ccc(NC(=O)C(CCN)c3ccc(Cl)cc3F)cc12` (centres unmarked) [Compound I-132], the Ki at AKT-3, at PDK-1 and at PKA was < 1000 nM each time.
For `COc1c(C(CCN)C(=O)Nc2ccc3[nH]nc(C)c3c2)ccc(Cl)c1Cl` (centres unmarked) [Compound I-130], the Ki at AKT-3, at PDK-1 and at PKA was < 1000 nM in each case.
With `NCCCC(C(=O)Nc1ccc2[nH]ncc2c1)c1ccc(Cl)c(Cl)c1` (centres unmarked) [Compound I-155], the Ki on AKT-3 is < 1000 nM; on PDK-1, > 3000 nM; on PKA, < 1000 nM.
As for `NCCC(C(=O)Nc1ccc2[nH]nc(-c3ccc(F)cc3)c2c1)c1ccc(Cl)c(Cl)c1` (centres unmarked) [Compound I-234], the Ki on AKT-3, on PDK-1 and at PKA was < 1000 nM in each case.
As for `NCCC(C(=O)Nc1ccc2[nH]nc(NC(=O)c3cccc(F)c3)c2c1)c1ccc(Cl)c(Cl)c1` (centres unmarked) [Compound I-179], the Ki at AKT-3, on PDK-1 and at PKA was < 1000 nM each time.
For `NCCC(C(=O)Nc1ccc2[nH]nc(-c3ccccc3)c2c1)c1ccc(Cl)c(Cl)c1` (centres unmarked) [Compound I-119], the Ki at AKT-3, at PDK-1 and at PKA was < 1000 nM in each case.
In the case of `N#Cc1cccc(Nc2n[nH]c3ccc(NC(=O)C(CN)c4ccc(Cl)c(Cl)c4)cc23)c1` (centres unmarked) [Compound I-232], the results for the Ki on AKT-3, on PDK-1 and at PKA were < 1000 nM, > 3000 nM and < 1000 nM, respectively.
`Cc1n[nH]c2ccc(NC(=O)C(CCN)c3cccc(Cl)c3Cl)cc12` (centres unmarked) [Compound I-120]: the Ki at AKT-3, on PDK-1 and on PKA was < 1000 nM each time.
As to `Cc1n[nH]c2ccc(NC(=O)[C@H](CCN)c3cccc(Cl)c3F)cc12` [Compound I-125], the Ki on AKT-3, on PDK-1 and on PKA was < 1000 nM each time.
As to `CCc1cccc(C(CCN)C(=O)Nc2ccc3[nH]nc(C)c3c2)c1` (centres unmarked) [Compound I-135], the figures for the Ki at AKT-3, at PDK-1 and on PKA were < 1000 nM, > 3000 nM and < 1000 nM, respectively.
On to `NCC[C@H](C(=O)Nc1ccc2[nH]nc(-c3ccccc3)c2c1)c1ccccc1` [Compound I-1053], for which the values for the Ki on AKT-3, at PDK-1 and on PKA were 10000 to 20000 nM, < 1000 nM and 1000 to 5000 nM, respectively.
For the molecule `NCCC(C(=O)Nc1ccc2[nH]nc(NC(=O)c3cc(Cl)cc(Cl)c3)c2c1)c1ccc(Cl)c(Cl)c1` (centres unmarked) [Compound I-184], the results for the Ki at AKT-3, at PDK-1 and at PKA were < 1000 nM, > 3000 nM and < 1000 nM, respectively.
`CCOc1cccc(C(=O)Nc2n[nH]c3ccc(NC(=O)C(CCN)c4ccc(Cl)c(Cl)c4)cc23)c1` (centres unmarked) [Compound I-181]: the Ki on AKT-3, at PDK-1 and on PKA was < 1000 nM in each case.
For `NCCC(C(=O)Nc1ccc2[nH]nc(Br)c2c1)c1ccc(Cl)c(Cl)c1` (centres unmarked) [Compound I-122], the Ki is < 1000 nM at AKT-3, 1000 to 3000 nM on PDK-1 and < 1000 nM at PKA.
Regarding `C=Cc1cccc(C(=O)Nc2n[nH]c3ccc(NC(=O)C(CCN)c4ccc(Cl)c(Cl)c4)cc23)c1` (centres unmarked) [Compound I-196], the Ki is < 1000 nM at AKT-3, > 3000 nM at PDK-1 and < 1000 nM on PKA.
For the molecule `NCCC(C(=O)Nc1ccc2[nH]ncc2c1)c1ccc2ccccc2c1` (centres unmarked) [Compound I-102], the Ki at AKT-3 was < 1000 nM; on PDK-1, > 3000 nM; on PKA, < 1000 nM.
In the case of `NCCC(C(=O)Nc1ccc2[nH]nc(NC(=O)c3ccc(Cl)cc3)c2c1)c1ccc(Cl)c(Cl)c1` (centres unmarked) [Compound I-182], the Ki at AKT-3, on PDK-1 and on PKA was < 1000 nM in each case.
With `NCCC(C(=O)Nc1ccc2[nH]nc(N)c2c1)c1ccc(Cl)c(Cl)c1` (centres unmarked) [Compound I-138], the Ki at AKT-3, at PDK-1 and on PKA was < 1000 nM throughout.
As for `NCCC(C(=O)Nc1ccc2[nH]ncc2c1)c1cccc(Br)c1` (centres unmarked) [Compound I-110], the Ki at AKT-3, on PDK-1 and at PKA was < 1000 nM throughout.
Take `NCCC(C(=O)Nc1ccc2[nH]nc(-c3ccc(-c4ccccc4)cc3)c2c1)c1ccccc1` (centres unmarked) [Compound I-236]: the Ki is 1000 to 10000 nM on AKT-3, < 1000 nM at PDK-1 and < 1000 nM at PKA.
In the case of `NCCC(C(=O)Nc1ccc2[nH]nc(NC(=O)c3cccs3)c2c1)c1ccccc1` (centres unmarked) [Compound I-1043], the Ki at AKT-3, at PDK-1 and at PKA was < 1000 nM throughout.
As to `N#Cc1cccc(C(=O)Nc2n[nH]c3ccc(NC(=O)C(CCN)c4ccc(Cl)c(Cl)c4)cc23)c1` (centres unmarked) [Compound I-175], the Ki is < 1000 nM at AKT-3, 1000 to 3000 nM at PDK-1 and < 1000 nM on PKA.
Turning to `CNCCC(C(=O)Nc1ccc2[nH]ncc2c1)c1ccc(Cl)c(Cl)c1` (centres unmarked) [Compound I-153], the Ki was < 1000 nM on AKT-3, > 3000 nM on PDK-1 and < 1000 nM at PKA.
For `NCCC(C(=O)Nc1ccc2[nH]nc(Nc3cccc(F)c3)c2c1)c1ccccc1` (centres unmarked) [Compound I-1039], the Ki at AKT-3 was 1000 to 10000 nM; on PDK-1, > 3000 nM; on PKA it was < 1000 nM.
Consider `Cc1n[nH]c2ccc(NC(=O)C(CN)c3ccc(Cl)c(Cl)c3)cc12` (centres unmarked) [Compound I-233], for which the Ki was < 1000 nM at AKT-3; 1000 to 3000 nM and > 3000 nM at PDK-1; < 1000 nM on PKA.
For `Cc1n[nH]c2ccc(NC(=O)C(CCN)c3ccc(Cl)s3)cc12` (centres unmarked) [Compound I-139], the Ki at AKT-3, on PDK-1 and on PKA was < 1000 nM throughout.
For `NCCC(C(=O)Nc1ccc2[nH]nc(-c3ccc(-c4nn[nH]n4)cc3)c2c1)c1ccccc1` (centres unmarked) [Compound I-261], the Ki at PDK-1 and on PKA was < 1000 nM each time.

What is called Ki is a dissociation constant, usually derived from enzyme kinetics or from competition with a known ligand.
